Source: ChEMBL document CHEMBL5528087, “RNA-Small-Molecule Interaction: Challenging the "Undruggable" Tag” (J Med Chem, 2024)

What was measured:
[1] = target: T1, Survival of motor neuron-related-splicing factor 30 (Homo sapiens) (UniProt O75940); assay: Inhibition of SMNDC1 (unknown origin) assessed as fold increase at 40 uM
T1 sequence (whole entry): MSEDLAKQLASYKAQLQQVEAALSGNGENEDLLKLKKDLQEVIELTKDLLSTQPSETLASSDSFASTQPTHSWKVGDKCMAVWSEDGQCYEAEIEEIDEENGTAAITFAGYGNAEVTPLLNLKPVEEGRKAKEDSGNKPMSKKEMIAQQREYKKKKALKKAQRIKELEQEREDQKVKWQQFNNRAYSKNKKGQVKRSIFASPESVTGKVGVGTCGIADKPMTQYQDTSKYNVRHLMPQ

Quadruplex DNA [2] = assay: Binding affinity to TERRA G-Quadruplex (unknown origin) assessed as melting temperature; type: nucleic-acid assay
Quadruplex DNA [3] = assay: Binding affinity to TERRA G-Quadruplex (unknown origin) assessed as dissociation constant; type: nucleic-acid assay
preQ1 riboswitch [4] = assay: Binding affinity to Bacillus subtilis 5-Cy5-PreQ1-RS RNA assessed as dissociation constant; type: nucleic-acid assay
preQ1 riboswitch [5] = assay: Binding affinity to Thermoanaerobacter tengcongensis 5-Cy5-PreQ1-RS RNA assessed as dissociation constant; type: nucleic-acid assay, Caldanaerobacter subterraneus subsp. tengcongensis
[6] = target: T2, Non-structural protein 4b (Hepacivirus hominis, UniProt F5B4I0); assay: Binding affinity to Hepatitis C virus genotype 1 NS4B assessed as inhibition constant
T2 sequence (F5B4I0 whole entry): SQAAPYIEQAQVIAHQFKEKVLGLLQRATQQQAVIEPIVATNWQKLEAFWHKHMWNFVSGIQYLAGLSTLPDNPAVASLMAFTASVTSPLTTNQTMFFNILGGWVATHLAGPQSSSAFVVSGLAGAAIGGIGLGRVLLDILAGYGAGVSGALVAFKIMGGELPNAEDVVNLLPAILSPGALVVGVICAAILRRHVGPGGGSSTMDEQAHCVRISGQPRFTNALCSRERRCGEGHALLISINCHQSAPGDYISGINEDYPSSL

[7] = Binding affinity to SARS-Cov-2 RNA pseudoknot assessed as dissociation constant; set-up: species or system Severe acute respiratory syndrome coronavirus 2

Work on O=C(c1cnc(C(=O)c2c[nH]c3cc(O)ccc23)[nH]1)c1c[nH]c2ccccc12 yielded a fold change (FC) [1] of 1.5.
For O=c1c2c(-c3ccco3)csc2nc2n1Cc1nc3scc(-c4ccco4)c3c(=O)n1C2, the ΔTm (Quadruplex DNA [2]) was greater than 5 °C and the Kd (Quadruplex DNA [3]) was 8.8 µM.
With NCCOc1ccc2oc3ccccc3c2c1 the Kd (preQ1 riboswitch [4]) was 0.534 µM and the Kd (preQ1 riboswitch [5]) was 0.457 µM.
Compound CN(C)CCCNc1nc2ccc(N)cc2o1 has a Ki [6] of 6 µM.
CCOC(=O)c1ccccc1NC(=O)N1CCCN(Cc2csc(C)n2)CC1 gave a Kd [7] of 210 µM.
